Test results from patent US20130065883A1 (Centro Nacional de Investigaceiones Oncologicas (CNIO), priority 2010, published 2013).

Experiments:
PIM-2 = molecular target: T1, PIM-2 (Homo sapiens, UniProt Q9P1W9); assay: PIM-2 biochemical assay (ADP Hunter); settings: semi-quantitative class; read-out: PIM2 IC50;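 note: recombinant N-terminally His-tagged human enzyme, kinase activity quantified by detection of ADP formed as the direct reaction product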
T1 construct: histidine tag (N); made in house
T1 sequence (Q9P1W9 whole entry): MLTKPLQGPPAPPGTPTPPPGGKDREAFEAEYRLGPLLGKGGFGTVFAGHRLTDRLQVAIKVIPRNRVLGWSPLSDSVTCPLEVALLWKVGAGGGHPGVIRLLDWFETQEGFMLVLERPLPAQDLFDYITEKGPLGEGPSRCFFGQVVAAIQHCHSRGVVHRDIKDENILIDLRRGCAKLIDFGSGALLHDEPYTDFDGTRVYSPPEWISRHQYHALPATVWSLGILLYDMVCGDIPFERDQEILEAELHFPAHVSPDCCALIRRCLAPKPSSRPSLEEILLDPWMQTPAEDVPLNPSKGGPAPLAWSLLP

PIM-1 = molecular target: T2, PIM-1 (Homo sapiens, UniProt P11309); assay: PIM-1 biochemical assay (ADP Hunter); settings: semi-quantitative class; read-out: PIM1 IC50;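 note: recombinant human PIM-1 carrying a C-terminal His tag, kinase activity quantified via ADP formed as the direct enzymatic product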
T2 construct: histidine tag (C); made in house
T2 sequence (P11309 whole entry): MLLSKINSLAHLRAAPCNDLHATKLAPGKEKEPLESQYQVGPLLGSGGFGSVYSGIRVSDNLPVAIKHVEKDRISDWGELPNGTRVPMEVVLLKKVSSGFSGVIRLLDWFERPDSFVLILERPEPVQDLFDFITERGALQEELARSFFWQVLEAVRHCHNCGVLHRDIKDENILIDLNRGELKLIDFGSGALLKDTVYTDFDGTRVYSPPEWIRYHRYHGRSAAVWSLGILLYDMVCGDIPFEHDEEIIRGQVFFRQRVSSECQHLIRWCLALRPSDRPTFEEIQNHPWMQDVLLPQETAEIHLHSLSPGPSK

Row | IC50 (PIM-2) [µM] | IC50 (PIM-1) [µM] | Compound
1 | > 1 |  | FC(F)(F)Oc1cccc(-n2nnc3ccc(NCCc4cccnc4)nc32)c1 [2-08]
2 | > 1 |  | CCCNc1ccc2nnn(-c3cccc(OC(F)(F)F)c3)c2n1 [2-09]
3 | > 1 |  | FC(F)(F)Oc1cccc(-n2nnc3ccc(NC4CCOCC4)nc32)c1 [2-10]
4 | > 1 | 0.1 to 1 | FC(F)(F)Oc1cccc(-n2nnc3ccc(NCC4CC4)nc32)c1 [2-20]
5 | > 1 |  | CN(C)C(=O)CN1CCC(CNc2ccc3nnn(-c4cccc(OC(F)(F)F)c4)c3n2)CC1 [2-22]
6 | > 1 |  | O=C(CN1CCC(CNc2ccc3nnn(-c4cccc(OC(F)(F)F)c4)c3n2)CC1)C1CC1 [2-26]
7 | > 1 | 0.1 to 1 | FC(F)(F)Oc1cccc(-n2nnc3ccc(NCC4CCN(C5CC5)CC4)nc32)c1 [2-27]
8 | > 1 | 0.1 to 1 | O=CNCCN1CCN(c2ccc3nnn(-c4cccc(OC(F)(F)F)c4)c3n2)CC1 [2-29]
9 | > 1 | > 1 | CC(C)(C)OC(=O)N1CCC(Nc2ccc3nnn(-c4cccc(OC(F)(F)F)c4)c3n2)CC1 [2-33]
10 | > 1 | > 1 | CC(C)(C)OC(=O)N1CCN(CCNc2ccc3nnn(-c4cccc(OC(F)(F)F)c4)c3n2)CC1 [2-34]
11 | > 1 | 0.1 to 1 | O=C1CN(CCNc2ccc3nnn(-c4cccc(OC(F)(F)F)c4)c3n2)CCN1 [2-35]
12 | > 1 | 0.1 to 1 | OCCNc1ccc2nnn(-c3cccc(OC(F)(F)F)c3)c2n1 [2-37]
13 | > 1 | > 1 | CN(C)CCNc1ccc2nnn(-c3cccc(OC(F)(F)F)c3)c2n1 [2-39]
14 | > 1 | > 1 | NC(=O)CNc1ccc2nnn(-c3cccc(OC(F)(F)F)c3)c2n1 [2-40]
15 | > 1 | > 1 | CC(=O)NCCNc1ccc2nnn(-c3cccc(OC(F)(F)F)c3)c2n1 [2-41]
16 | > 1 | 0.1 to 1 | NC(=O)CCNc1ccc2nnn(-c3cccc(OC(F)(F)F)c3)c2n1 [2-42]
17 | > 1 | 0.1 to 1 | O=C1NCCN1CCNc1ccc2nnn(-c3cccc(OC(F)(F)F)c3)c2n1 [2-48]

Second part, the compound before the results:

Row | Compound | IC50 (PIM-2) [µM] | IC50 (PIM-1) [µM]
18 | COc1ccc(-n2nnc3ccc(N4CCCCCC4)nc32)cc1 [2-01] | > 1 | 
19 | COc1ccc(-n2nnc3ccc(NCc4ccc(F)cc4)nc32)cc1 [2-02, (4-Fluoro-benzyl)-[3-(4-methoxy-phenyl)-3H-[1,2,3]triazolo[4,5-b]pyridin-5-yl]amine] | > 1 | 
20 | COc1ccc(-n2nnc3ccc(NCc4cccc(Cl)c4)nc32)cc1 [2-03] | > 1 | > 1
21 | CCOC(=O)c1cc2nnn(-c3ccc(OC)cc3)c2nc1NCc1ccc(F)cc1 [2-06] | > 1 | > 1
22 | CCOC(=O)c1cc2nnn(-c3ccc(OC)cc3)c2nc1N1CCCCCC1 [2-07] | > 1 | > 1
23 | c1ccc(CCNc2ccc3nnn(-c4ccccc4)c3n2)cc1 [2-11] | > 1 | 
24 | Fc1ccc(-n2nnc3ccc(N4CCCCCC4)nc32)cc1 [2-12] | > 1 | 
25 | Fc1ccc(-n2nnc3ccc(N4CCOCC4)nc32)cc1 [2-13] | > 1 | 
26 | CCOC(=O)c1cc2nnn(-c3ccc(OC)cc3)c2nc1NCC1CCN(C)CC1 [2-14, 3-(4-Methoxy-phenyl)-5-[(1-methyl-piperidin-4-ylmethyl)-amino]-3H-[1,2,3]triazolo[4,5-b]pyridine-6-carboxylic acid ethyl ester] | > 1 | > 1
27 | CCOC(=O)c1cc2nnn(-c3ccc(O)cc3)c2nc1NCc1ccc(F)cc1 [2-15] | > 1 | > 1
28 | CCOC(=O)c1cc2nnn(-c3ccc(O)cc3)c2nc1N1CCCCCC1 [2-16] | > 1 | > 1
29 | COc1cccc(CCNc2ccc3nnn(-c4ccc(F)cc4)c3n2)c1OC [2-17] | > 1 | > 1
30 | NS(=O)(=O)c1ccc(CCNc2ccc3nnn(-c4ccccc4)c3n2)cc1 [2-18] | > 1 | 
31 | CC(=O)Nc1ccc(-n2nnc3ccc(NCC4CCN(C)CC4)nc32)cc1 [2-23] | > 1 | > 1
32 | CCCNc1ccc2nnn(-c3ccc(O)cc3)c2n1 [2-24] | > 1 | 
